ChEMBL document CHEMBL1125568, “ATP-citrate lyase as a target for hypolipidemic intervention. Sulfoximine and 3-hydroxy-beta-lactam containing analogues of citric acid as potential tight-binding inhibitors” (J Med Chem, 1992)

B1: ATP-citrate synthase (Rattus norvegicus), P16638 (protein)
chain: MSAKAISEQTGKELLYKYICTTSAIQNRFKYARVTPDTDWAHLLQDHPWLLSQSLVVKPDQLIKRRGKLGLVGVNLSLDGVKSWLKPRLGHEATVGKAKGFLKNFLIEPFVPHSQAEEFYVCIYATREGDYVLFHHEGGVDVGDVDTKAQKLLVGVDEKLNAEDIKRHLLVHAPEDKKEILASFISGLFNFYEDLYFTYLEINPLVVTKDGVYILDLAAKVDATADYICKVKWGDIEFPPPFGREAYPEEAYIADLDAKSGASLKLTLLNPKGRIWTMVAGGGASVVYSDTICDLGGVNELANYGEYSGAPSEQQTYDYAKTILSLMTREKHPDGKILIIGGSIANFTNVAATFKGIVRAIRDYQGSLKEHEVTIFVRRGGPNYQEGLRVMGEVGKTTGIPIHVFGTETHMTAIVGMAWAPAIPNQPPTAAHTANFLLNASGSTSTPAPSRTASFSESRADEVAPAKKAKPAMPQDSVPSPRSLQGKSATLFSRHTKAIVWGMQTRAVQGMLDFDYVCSRDEPSVAAMVYPFTGDHKQKFYWGHKEILIPVFKNMADAMKKHPEVDVLINFASLRSAYDSTMETMNYAQIRTIAIIAEGIPEALTRKLIKKADQKGVTIIGPATVGGIKPGCFKIGNTGGMLDNILASKLYRPGSVAYVSRSGGMSNELNNIISRTTDGVYEGVAIGGDRYPGSTFMDHVLRYQDTPGVKMIVVLGEIGGTEEYKICRGIKEGRLTKPVVCWCIGTCATMFSSEVQFGHAGACANQASETAVAKNQALKEAGVFVPRSFDELGEIIQSVYEDLVAKGAIVPAQEVPPPTVPMDYSWARELGLIRKPASFMTSICDERGQELIYAGMPITEVFKEEMGIGGVLGLLWFQRRLPKYSCQFIEMCLMVTADHGPAVSGAHNTIICARAGKDLVSSLTSGLLTIGDRFGGALDAAAKMFSKAFDSGIIPMEFVNKMKKEGKLIMGIGHRVKSINNPDMRVQILKDFVKQHFPATPLLDYALEVEKITTSKKPNLILNVDGFIGVAFVDMLRNCGSFTREEADEYVDIGALNGVFVLGRSMGFIGHYLDQKRLKQGLYRHPWDDISYVLPEHMSM

Legend:
[1] = biological target: T1, ATP-citrate synthase (Rattus norvegicus, UniProt P16638); test: Reversible binding Ki was measured by the inhibition of the carbon-carbon bond cleavage activity against rat ATP-Citrate Lyase
T1 sequence (P16638 whole entry): B1 chain

[2] = biological target: T2, ATP-citrate synthase (Rattus norvegicus) (UniProt P16638); test: Inhibitory activity against rat ATP-Citrate lyase measured in terms of Vmax.
T2 sequence (whole entry): B1 chain

[3] = compound: C[S+](=N)([O-])C[C@@](O)(CC(=O)O)C(=O)O; test: Inhibitory activity against rat ATP-Citrate lyase measured in terms of Km.
[4] = substrate: O=C(O)CC(O)(CC(=O)O)C(=O)O

| Molecule | Ki [1] [mM] | other results |
| --- | --- | --- |
| C[S+](=N)([O-])C[C@@](O)(CC(=O)O)C(=O)O (stereo in doubt; 12b) [listing 1 of 2 here] | > 10 |  |
| O=C(O)C[C@H](C[C@@]1(O)CNC1=O)C(=O)O | > 20 |  |
| C[S+](=N)([O-])C[C@@](O)(CC(=O)O)C(=O)O (stereo in doubt; 12b) [listing 2 of 2 here] |  | Relative Vmax [2]: < 0.003 |
| C[S+](=N)([O-])C[C@@](O)(CC(=O)O)C(=O)O (stereo in doubt; 12a) [listing 1 of 2 here] |  | Relative Vmax [2]: 0.25 |
| C[S+](=N)([O-])C[C@@](O)(CC(=O)O)C(=O)O (stereo in doubt; 12a) [listing 2 of 2 here] | 0.25 |  |
| O=C(O)C[C@H](C[C@]1(O)CNC1=O)C(=O)O | > 9 |  |
| B1 |  | Km [3]: 1300 µM; Km [4]: 110 µM |
